Entries after “also recorded” stand apart in the source; their conditions may differ.

In assay [1] the test system is 624 melanoma cells made resistant to PLX4032. Put plainly: pAKT in PLX4032-resistant 624 melanoma cells (FIG. 8B-C). The conditions noted are these: treated with PLX4032. It counts as cell-based. The method, then:
FIG. 8 A-C.|Activation of PI3K represents an alternative mechanism of B-raf-mutant melanomas. A, A synthetic lethal chemical screen identified PI3K-dependent resistance to PLX4032. […] Co-treatment with a […] was needed to growth arrest the 624 ml VemR cells in the presence of PLX4032.

The next assay concerns LOX-IMVI VemR cells. In words: In vitro combination study vemurafenib + BGJ398, Vem-resistant cell outgrowth (FIG. 3A). The assay is classed as cell-based. Particulars: single agent alone.
The test system of a further assay is LOX-IMVI VemR cell line. Put plainly: LOX-IMVI VemR resensitization to vemurafenib by FGFR antagonists (FIG. 2B). The assay is classed as cell-based. Particulars: 5 μM vemurafenib (PLX) alone, DMSO plot. The method, then:
FIG. 2A-E.|A cell line (“LOX-IMVI VemR”) was engineered to be resistant to vemurafienib. A, An image of an immunoblot of 11 cell lines probed for FGFR1 expression. B, The LOX-IMVI VemR cell line is not affected by 5 μM vemurafenib (i.e., “PLX”) as shown in the DMSO plot; however, the cell line is affected by 5 μM vemurafenib in combination with an antagonist of FGFR signalling (i.e., BGJ398, PD173074, and AP24534).
The Lox-IMVI VemR cell line was used as the model of acquired resistance in B-raf mutant melanoma. 11 cell lines were tested for FGFR1 expression using a Western blot. Of the cell lines tested, FGFR1 expression was detected in the LOX-IMVI (vemurafenib sensitive) and LOX-IMVI VemR (vemurafenib resistant) lines (FIG. 2A).

The next assay relates to B-raf mutant melanoma. Particulars: cited from earlier work.
For another assay, the system named is LOX-IMVI tumors. Put plainly: In vivo tumor volume, parental vemurafenib sensitive tumors. The conditions noted are these: vemurafenib 25 mg/kg, BID alone. The method, then: (§1) FIG. 4A-C.|The LOX-IMVI VemR cell line has FGFR-mediated vemurafenib resistance in vivo. A, LOX-IMVI cells (parental cell line) are sensitive to vemurafenib.
(§2) The vemurafenib resistance and recovery of the LOX-IMVI VemR cell line was also studied in vivo. The tumor volume (mm^3) was measured in LOX-IMVI (parental, vemurafenib sensitive) tumors and in LOX-IMVI VemR (vemurafenib resistant) tumors in the presence of vemurafenib, BGJ398, or vemurafenib and BGJ398 ([…]).

Another assay has as its system LOX-IMVI VemR tumors. In words: In vivo tumor volume, vemurafenib resistant tumors. Particulars: vemurafenib alone. The method, then:
as §1, §2

In the case of `CCCS(=O)(=O)Nc1ccc(F)c(C(=O)c2c[nH]c3ncc(-c4ccc(Cl)cc4)cc23)c1F` [vemurafenib, N-(3-{[5-(4-chlorophenyl)-1H-pyrrolo[2,3-b]pyridin-3-yl]carbonyl}-2,4-difluorophenyl)propane-1-sulfonamide], the pAKT entry in assay [1] is reported as “increase in pAKT”. For the same molecule, in the assay with LOX-IMVI VemR cells, the response to treatment result was “minimal response”. The “effect on the cell line” value with LOX-IMVI VemR cell line is recorded as “not affected”. Further, in the assay with B-raf mutant melanoma (majority of patients, residual tumor), the “time to relapse following maximal response” value is given as not above 1 year. In the assay on B-raf mutant melanoma (patients), the patients who respond result was “majority” and the “patients with tumor progression early in therapy” value is on record as 10%. In addition, the tumor volume result with LOX-IMVI tumors was “tumor volume decreased; also recorded: sensitive”. For the same molecule, the tumor volume entry in the assay with LOX-IMVI VemR tumors is reported as “did not show a decrease in tumor volume”.
